Assay [1] deals with Activin receptor type-2A (Homo sapiens) (UniProt P27037). The assay is described as follows: Inhibition of wild-type human ACVR2A (V171 to T499 residues) expressed in bacterial expression system at 1 uM by Kinomescan method relative to control.
For assay [2], the system named is Epidermal growth factor receptor (Homo sapiens), P00533 [UNDEFINED MUTATION]. Nature of the assay: Inhibition of human partial length EGFR S752-I759del mutant expressed in bacterial expression system at 1 uM by Kinomescan method relative to control.
Epidermal growth factor receptor (Homo sapiens), P00533 [UNDEFINED MUTATION], sequence (P00533 whole entry, looked up, stated change not applied, the tested form may be a part): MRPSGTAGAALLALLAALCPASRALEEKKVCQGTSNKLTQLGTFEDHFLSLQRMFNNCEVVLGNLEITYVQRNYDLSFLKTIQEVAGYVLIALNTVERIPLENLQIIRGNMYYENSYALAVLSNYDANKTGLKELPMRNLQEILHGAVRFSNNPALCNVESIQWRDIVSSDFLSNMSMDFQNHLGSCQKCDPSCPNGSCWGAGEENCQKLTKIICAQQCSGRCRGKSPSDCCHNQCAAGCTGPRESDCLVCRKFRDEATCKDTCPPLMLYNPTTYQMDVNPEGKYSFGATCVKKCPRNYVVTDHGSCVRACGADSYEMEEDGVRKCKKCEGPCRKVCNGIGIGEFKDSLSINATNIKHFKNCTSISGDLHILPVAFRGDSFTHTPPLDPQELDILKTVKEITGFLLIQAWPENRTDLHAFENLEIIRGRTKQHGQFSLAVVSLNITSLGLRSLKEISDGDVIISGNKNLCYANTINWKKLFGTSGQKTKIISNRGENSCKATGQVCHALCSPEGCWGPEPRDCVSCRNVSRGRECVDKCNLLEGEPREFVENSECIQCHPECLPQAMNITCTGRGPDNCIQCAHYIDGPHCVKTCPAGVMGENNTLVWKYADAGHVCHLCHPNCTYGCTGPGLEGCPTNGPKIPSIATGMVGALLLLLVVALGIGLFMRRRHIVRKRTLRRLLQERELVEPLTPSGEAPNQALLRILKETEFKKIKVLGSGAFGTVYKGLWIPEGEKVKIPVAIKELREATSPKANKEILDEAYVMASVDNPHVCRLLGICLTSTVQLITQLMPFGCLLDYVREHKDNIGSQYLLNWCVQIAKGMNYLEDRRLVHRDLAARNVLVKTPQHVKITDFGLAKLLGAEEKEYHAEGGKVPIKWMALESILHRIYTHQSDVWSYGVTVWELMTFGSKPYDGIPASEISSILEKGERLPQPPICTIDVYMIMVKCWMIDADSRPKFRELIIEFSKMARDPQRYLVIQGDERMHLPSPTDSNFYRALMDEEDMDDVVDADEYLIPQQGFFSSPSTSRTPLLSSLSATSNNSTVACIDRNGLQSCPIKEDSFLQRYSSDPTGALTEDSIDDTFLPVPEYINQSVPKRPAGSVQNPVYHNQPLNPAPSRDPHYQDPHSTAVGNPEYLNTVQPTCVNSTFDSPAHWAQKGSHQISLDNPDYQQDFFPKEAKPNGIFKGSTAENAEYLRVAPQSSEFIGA
Assay [3] relates to eIF-2-alpha kinase GCN2 (Homo sapiens), Q9P2K8 [S808G]. Nature of the assay: Inhibition of wild-type human partial length GCN2 kinase domain 2 (R585 to T1018 residues) S808G mutant expressed in bacterial expression system at 1 uM by Kinomescan method relative to control.
eIF-2-alpha kinase GCN2 (Homo sapiens), Q9P2K8 [S808G], sequence (Q9P2K8 whole entry S808G, the tested form may be a part): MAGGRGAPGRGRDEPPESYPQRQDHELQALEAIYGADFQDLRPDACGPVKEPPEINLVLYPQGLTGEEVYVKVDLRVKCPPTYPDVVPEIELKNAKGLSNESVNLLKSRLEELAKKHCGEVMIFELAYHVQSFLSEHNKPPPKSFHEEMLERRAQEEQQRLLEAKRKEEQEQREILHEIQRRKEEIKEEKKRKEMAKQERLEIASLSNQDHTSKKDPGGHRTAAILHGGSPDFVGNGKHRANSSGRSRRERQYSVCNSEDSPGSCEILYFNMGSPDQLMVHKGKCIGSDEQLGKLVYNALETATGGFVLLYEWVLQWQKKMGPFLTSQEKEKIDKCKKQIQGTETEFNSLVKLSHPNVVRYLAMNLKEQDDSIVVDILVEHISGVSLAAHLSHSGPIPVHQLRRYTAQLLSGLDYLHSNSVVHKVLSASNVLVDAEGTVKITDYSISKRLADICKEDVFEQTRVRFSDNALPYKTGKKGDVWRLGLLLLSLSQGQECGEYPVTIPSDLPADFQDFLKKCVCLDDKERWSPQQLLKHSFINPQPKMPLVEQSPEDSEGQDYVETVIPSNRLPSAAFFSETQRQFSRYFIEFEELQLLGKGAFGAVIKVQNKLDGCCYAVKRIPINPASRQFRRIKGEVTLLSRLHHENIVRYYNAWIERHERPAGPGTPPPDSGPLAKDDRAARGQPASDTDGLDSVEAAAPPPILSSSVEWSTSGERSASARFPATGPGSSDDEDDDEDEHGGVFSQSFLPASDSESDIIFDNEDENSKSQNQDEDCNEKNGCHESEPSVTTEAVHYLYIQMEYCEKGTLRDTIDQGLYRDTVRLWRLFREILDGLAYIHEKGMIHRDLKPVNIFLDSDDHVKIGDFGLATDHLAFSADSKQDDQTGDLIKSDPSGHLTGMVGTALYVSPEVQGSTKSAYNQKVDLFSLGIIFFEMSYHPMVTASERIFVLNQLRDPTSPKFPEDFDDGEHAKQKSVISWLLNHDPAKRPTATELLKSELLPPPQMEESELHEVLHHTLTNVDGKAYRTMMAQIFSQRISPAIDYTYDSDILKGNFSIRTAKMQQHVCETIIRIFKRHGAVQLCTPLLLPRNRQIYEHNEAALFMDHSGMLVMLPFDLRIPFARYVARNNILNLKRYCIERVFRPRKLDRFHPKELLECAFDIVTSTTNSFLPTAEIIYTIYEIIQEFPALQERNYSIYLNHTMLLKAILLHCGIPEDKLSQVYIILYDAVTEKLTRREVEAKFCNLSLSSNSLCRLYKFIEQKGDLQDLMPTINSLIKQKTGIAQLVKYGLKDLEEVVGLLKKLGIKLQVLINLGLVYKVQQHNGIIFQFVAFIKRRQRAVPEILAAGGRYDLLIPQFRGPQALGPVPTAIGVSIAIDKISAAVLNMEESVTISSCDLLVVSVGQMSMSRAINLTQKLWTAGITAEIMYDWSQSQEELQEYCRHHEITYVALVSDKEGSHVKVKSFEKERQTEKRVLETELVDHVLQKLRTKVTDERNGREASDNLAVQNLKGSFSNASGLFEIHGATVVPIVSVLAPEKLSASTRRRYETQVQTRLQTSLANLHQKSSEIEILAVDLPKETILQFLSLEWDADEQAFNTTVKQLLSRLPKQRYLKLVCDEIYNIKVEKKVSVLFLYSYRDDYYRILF
The target of assay [4] is Serine/threonine-protein kinase MRCK alpha (Homo sapiens) (UniProt Q5VT25). The assay is described as follows: Inhibition of wild-type human partial length MRCKA (L57 to V418 residues) expressed in bacterial expression system at 1 uM by Kinomescan method relative to control.
The target in assay [5] is Myosin light chain kinase family member 4 (Homo sapiens) (UniProt Q86YV6). The assay is described as follows: Inhibition of wild-type human partial length MYLK4 (V79 to S380 residues) expressed in bacterial expression system at 1 uM by Kinomescan method relative to control.
Myosin light chain kinase family member 4 (Homo sapiens), sequence (Q86YV6 whole entry, the tested form may be a part): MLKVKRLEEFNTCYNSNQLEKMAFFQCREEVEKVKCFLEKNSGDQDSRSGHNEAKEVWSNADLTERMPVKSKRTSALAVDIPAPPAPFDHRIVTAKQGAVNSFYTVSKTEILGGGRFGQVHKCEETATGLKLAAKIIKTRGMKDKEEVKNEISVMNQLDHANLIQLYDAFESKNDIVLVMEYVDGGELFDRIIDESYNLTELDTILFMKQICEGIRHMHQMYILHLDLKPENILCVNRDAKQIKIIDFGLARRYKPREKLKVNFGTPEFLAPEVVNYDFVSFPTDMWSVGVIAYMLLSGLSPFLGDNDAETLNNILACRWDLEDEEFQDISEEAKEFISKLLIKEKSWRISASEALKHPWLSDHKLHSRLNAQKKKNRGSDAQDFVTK
The target in assay [6] is Myosin-IIIa (Homo sapiens) (UniProt Q8NEV4). Nature of the assay: Inhibition of wild-type human partial length MYO3A (M1 to K338 residues) expressed in bacterial expression system at 1 uM by Kinomescan method relative to control.
For assay [7], the target named is Serine/threonine-protein kinase Nek6 (Homo sapiens) (UniProt Q9HC98). Nature of the assay: Inhibition of wild-type human full length NEK6 (M8 to T313 residues) expressed in bacterial expression system at 1 uM by Kinomescan method relative to control.
Assay [8] deals with Phosphatidylinositol 4,5-bisphosphate 3-kinase catalytic subunit alpha isoform (Homo sapiens), P42336 [C420R]. The assay is described as follows: Inhibition of human partial length PIK3CA C420R mutant (R108 to N1068 residues) expressed in mammalian expression system at 1 uM by Kinomescan method relative to control.
In assay [9] the target is Serine/threonine-protein kinase PLK3 (Homo sapiens) (UniProt Q9H4B4). The assay is described as follows: Inhibition of wild-type human partial length PLK3 (A42 to L334 residues) expressed in mammalian expression system at 1 uM by Kinomescan method relative to control.
Assay [10] concerns the target Receptor-interacting serine/threonine-protein kinase 2 (Homo sapiens) (UniProt O43353). The assay is described as follows: Inhibition of wild-type human partial length RIPK2 (M1 to K310 residues) expressed in bacterial expression system at 1 uM by Kinomescan method relative to control.
Assay [11] addresses Serine/threonine-protein kinase 35 (Homo sapiens) (UniProt Q8TDR2). Nature of the assay: Inhibition of wild-type human partial length STK35 (G182 to A534 residues) expressed in bacterial expression system at 1 uM by Kinomescan method relative to control.
Assay [12] has as its target TGF-beta receptor type-1 (Homo sapiens) (UniProt P36897). The assay is described as follows: Inhibition of wild-type human partial length TGFBR1 (D179 to M503 residues) expressed in bacterial expression system at 1 uM by Kinomescan method relative to control.
For assay [13], the target named is Serine/threonine-protein kinase WNK3 (Homo sapiens) (UniProt Q9BYP7). The assay is described as follows: Inhibition of wild-type human partial length WNK3 (M1 to D434 residues) expressed in mammalian expression system at 1 uM by Kinomescan method relative to control.
Assay [14] has as its target Cyclin-dependent kinase 8 (Homo sapiens) (UniProt P49336). The assay is described as follows: Inhibition of wild-type human partial length CDK8 (M1 to T360 residues) expressed in bacterial expression system at 10 uM by Kinomescan method relative to control.
The target of assay [15] is Serine/threonine-protein kinase DCLK2 (Homo sapiens) (UniProt Q8N568). The assay is described as follows: Inhibition of wild-type human partial length DCAMKL2 (K273 to V664 residues) expressed in bacterial expression system at 10 uM by Kinomescan method relative to control.
Assay [16] deals with Insulin-like growth factor 1 receptor (Homo sapiens) (UniProt P08069). The assay is described as follows: Inhibition of wild-type human partial length IGF1R (L972 to D1294 residues) expressed in bacterial expression system at 10 uM by Kinomescan method relative to control.
Assay [17] deals with Inhibitor of nuclear factor kappa-B kinase subunit alpha (Homo sapiens) (UniProt O15111). The assay is described as follows: Inhibition of wild-type human full length IKK-alpha (M1 to E745 residues) expressed in mammalian expression system at 10 uM by Kinomescan method relative to control.
The target of assay [18] is Tyrosine-protein kinase Lyn (Homo sapiens) (UniProt P07948). Nature of the assay: Inhibition of wild-type human partial length LYN (C219 to Q511 residues) expressed in bacterial expression system at 10 uM by Kinomescan method relative to control.
Tyrosine-protein kinase Lyn (Homo sapiens), sequence (P07948 2-512 limits assumed): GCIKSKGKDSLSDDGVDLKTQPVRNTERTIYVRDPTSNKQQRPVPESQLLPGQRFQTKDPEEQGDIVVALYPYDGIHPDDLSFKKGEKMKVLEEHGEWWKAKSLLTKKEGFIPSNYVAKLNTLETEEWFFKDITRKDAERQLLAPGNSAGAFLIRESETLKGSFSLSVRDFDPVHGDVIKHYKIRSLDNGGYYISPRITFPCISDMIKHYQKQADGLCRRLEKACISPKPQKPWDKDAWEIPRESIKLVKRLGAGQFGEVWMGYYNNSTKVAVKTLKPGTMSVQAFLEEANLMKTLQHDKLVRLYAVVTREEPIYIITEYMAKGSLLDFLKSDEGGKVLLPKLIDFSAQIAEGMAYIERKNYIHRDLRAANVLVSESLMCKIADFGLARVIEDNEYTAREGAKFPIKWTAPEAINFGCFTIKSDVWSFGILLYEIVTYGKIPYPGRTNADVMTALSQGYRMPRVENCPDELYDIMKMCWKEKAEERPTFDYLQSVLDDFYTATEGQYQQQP
Assay [19] has as its target Mitogen-activated protein kinase kinase kinase 10 (Homo sapiens) (UniProt Q02779). The assay is described as follows: Inhibition of wild-type human partial length MLK2 (V52 to W380 residues) expressed in bacterial expression system at 10 uM by Kinomescan method relative to control.
For assay [20], the target named is Serine/threonine-protein kinase Nek10 (Homo sapiens) (UniProt Q6ZWH5). Nature of the assay: Inhibition of wild-type human partial length NEK10 (L488 to R809 residues) expressed in mammalian expression system at 10 uM by Kinomescan method relative to control.
Serine/threonine-protein kinase Nek10 (Homo sapiens), sequence (Q6ZWH5 whole entry, the tested form may be a part, canonical isoform): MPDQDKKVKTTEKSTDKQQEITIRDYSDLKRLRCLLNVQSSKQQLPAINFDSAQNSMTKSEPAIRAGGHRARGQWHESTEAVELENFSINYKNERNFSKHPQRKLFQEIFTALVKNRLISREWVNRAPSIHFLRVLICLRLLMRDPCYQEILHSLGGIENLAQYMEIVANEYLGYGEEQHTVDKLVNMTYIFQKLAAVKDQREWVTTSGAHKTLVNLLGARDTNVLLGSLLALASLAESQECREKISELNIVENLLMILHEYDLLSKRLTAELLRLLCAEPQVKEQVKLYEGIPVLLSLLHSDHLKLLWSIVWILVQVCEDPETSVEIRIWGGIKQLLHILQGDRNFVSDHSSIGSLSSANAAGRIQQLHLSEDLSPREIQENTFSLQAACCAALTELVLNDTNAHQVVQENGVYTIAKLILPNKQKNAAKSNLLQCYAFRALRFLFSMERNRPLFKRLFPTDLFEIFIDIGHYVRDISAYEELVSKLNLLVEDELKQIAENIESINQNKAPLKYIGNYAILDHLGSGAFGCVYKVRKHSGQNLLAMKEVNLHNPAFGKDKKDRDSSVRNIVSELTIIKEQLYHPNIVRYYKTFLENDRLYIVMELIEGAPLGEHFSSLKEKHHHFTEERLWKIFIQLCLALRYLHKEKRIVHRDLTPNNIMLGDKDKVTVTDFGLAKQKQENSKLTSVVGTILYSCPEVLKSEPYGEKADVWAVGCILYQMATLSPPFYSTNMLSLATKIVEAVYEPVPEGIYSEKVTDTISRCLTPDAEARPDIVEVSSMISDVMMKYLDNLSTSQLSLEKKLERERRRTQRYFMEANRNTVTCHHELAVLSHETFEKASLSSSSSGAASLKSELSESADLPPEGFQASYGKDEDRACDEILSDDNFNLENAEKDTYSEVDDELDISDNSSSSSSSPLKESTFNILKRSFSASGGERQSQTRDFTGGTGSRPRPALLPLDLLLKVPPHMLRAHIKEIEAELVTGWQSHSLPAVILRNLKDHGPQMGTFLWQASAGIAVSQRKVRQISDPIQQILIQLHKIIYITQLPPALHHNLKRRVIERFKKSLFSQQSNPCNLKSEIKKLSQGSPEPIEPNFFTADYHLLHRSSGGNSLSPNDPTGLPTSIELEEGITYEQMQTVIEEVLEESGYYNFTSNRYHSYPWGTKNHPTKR
The target of assay [21] is Phosphatidylinositol 4,5-bisphosphate 3-kinase catalytic subunit alpha isoform (Homo sapiens) (UniProt P42336). Nature of the assay: Inhibition of wild-type human partial length PIK3CA (R108 to N1068 residues) expressed in mammalian expression system at 10 uM by Kinomescan method relative to control.
For assay [22], the target named is cAMP-dependent protein kinase catalytic subunit PRKX (Homo sapiens) (UniProt P51817). Nature of the assay: Inhibition of wild-type human partial length PRKX (M1 to F358 residues) expressed in bacterial expression system at 10 uM by Kinomescan method relative to control.
Assay [23] concerns the target Protein-tyrosine kinase 2-beta (Homo sapiens) (UniProt Q14289). The assay is described as follows: Inhibition of wild-type human full length PYK2 (M1 to E967 residues) expressed in bacterial expression system at 10 uM by Kinomescan method relative to control.
The target in assay [24] is NUAK family SNF1-like kinase 2 (Homo sapiens) (UniProt Q9H093). The assay is described as follows: Inhibition of wild-type human partial length SNARK (P22 to A333 residues) expressed in mammalian expression system at 10 uM by Kinomescan method relative to control.
Assay [25] has as its target SRSF protein kinase 2 (Homo sapiens) (UniProt P78362). The assay is described as follows: Inhibition of wild-type human full length SRPK2 (M1 to S686 residues) expressed in bacterial expression system at 10 uM by Kinomescan method relative to control.
Assay [26] deals with Serine/threonine-protein kinase TAO3 (Homo sapiens) (UniProt Q9H2K8). Nature of the assay: Inhibition of wild-type human partial length TAOK3 (M1 to T316 residues) expressed in mammalian expression system at 10 uM by Kinomescan method relative to control.
Assay [27] has as its target Serine/threonine-protein kinase TNNI3K (Homo sapiens) (UniProt Q59H18). The assay is described as follows: Inhibition of wild-type human full length TNNI3K (M1 to S835 residues) expressed in bacterial expression system at 10 uM by Kinomescan method relative to control.

The structures appear in SMILES notation.

Regarding `O=C(Nc1cccc([C@@H]2CN(c3ncnc4[nH]ccc34)CCN2CCO)c1)Nc1c(F)cccc1N1CCCC1`, the inhibition (usually how much of the control response was suppressed) was found to be 100% in assay [1]; 100% in assay [2]; 95% in assay [3]; 100% in assay [4]; 100% in [5]; 82% in assay [6]. The inhibition in [7] was 86%; in assay [8], 89%; in [9], 74%; in assay [10], 100%; in [11], 100%; in assay [12] it was 71%. In assay [13], the inhibition is 61%.
Regarding `O=C(Nc1cccc([C@H]2CCCN(c3ncnc4[nH]ccc34)C2)c1)Nc1ccccc1N1CCCC1`, the inhibition in assay [14] worked out at 53%; in assay [15], 83%; in assay [16] it was 100%; in assay [17], 27%; in assay [18], 66%; in [19], 100%. Further, the inhibition in assay [20] worked out at 4.3%; in [21] it was 99%; in [22] it was 96%; in assay [23], 96%; in assay [24] it was 6.6%; in assay [25], 53%. Moreover, the inhibition in assay [26] worked out at 79%; in assay [27] it was 100%.

Source of the values: ChEMBL document CHEMBL4387741, “Optimization of novel reversible Bruton's tyrosine kinase inhibitors identified using Tethering-fragment-based screens” (Bioorg Med Chem, 2019).
